Source: the NIST ThermoML archive (doi:10.1007/s10765-007-0223-x)

Assay: xn = mol fraction of the nth substance listed
Settings: 101 kPa, Liquid; for speed of sound: Single path-length method

COC(C)(C)C [2-methoxy-2-methylpropane] + CC(C)CC(C)(C)C
Settings	mass density [kg/m3]	speed of sound [m/s]
288.15 K, x1 = 0.049	697.553	1121.8
288.15 K, x1 = 0.091	698.921	1119.5
288.15 K, x1 = 0.197	702.655	1113.9
288.15 K, x1 = 0.296	706.427	1108.7
288.15 K, x1 = 0.394	710.506	1103.7
288.15 K, x1 = 0.507	715.659	1098.5
288.15 K, x1 = 0.603	720.373	1094.9
288.15 K, x1 = 0.7	725.737	1090.9
288.15 K, x1 = 0.79	731.164	1087.8
288.15 K, x1 = 0.898	738.236	1084.6
288.15 K, x1 = 0.951	742.111	1083.4
288.15 K, x1 = 1	744.861	1082.1
290.65 K, x1 = 0.049	695.495	1111.2
290.65 K, x1 = 0.091	696.847	1108.8
290.65 K, x1 = 0.197	700.534	1103.3
290.65 K, x1 = 0.296	704.261	1097.9
290.65 K, x1 = 0.394	708.292	1092.9
290.65 K, x1 = 0.507	713.386	1087.6
290.65 K, x1 = 0.603	718.048	1083.9
290.65 K, x1 = 0.7	723.357	1079.8
290.65 K, x1 = 0.79	728.726	1076.7
290.65 K, x1 = 0.898	735.725	1073.3
290.65 K, x1 = 0.951	739.564	1072
290.65 K, x1 = 1	742.259	1070.6
293.15 K, x1 = 0.049	693.424	1100.6
293.15 K, x1 = 0.091	694.76	1098.2
293.15 K, x1 = 0.197	698.399	1092.6
293.15 K, x1 = 0.296	702.081	1087.1
293.15 K, x1 = 0.394	706.064	1082
293.15 K, x1 = 0.507	711.097	1076.7
293.15 K, x1 = 0.603	715.704	1072.9
293.15 K, x1 = 0.7	720.957	1068.7
293.15 K, x1 = 0.79	726.269	1065.5
293.15 K, x1 = 0.898	733.196	1062
293.15 K, x1 = 0.951	736.997	1060.6
293.15 K, x1 = 1	739.654	1059.1
295.65 K, x1 = 0.049	691.351	1090
295.65 K, x1 = 0.091	692.668	1087.5
295.65 K, x1 = 0.197	696.259	1081.8
295.65 K, x1 = 0.296	699.893	1076.2
295.65 K, x1 = 0.394	703.829	1071.1
295.65 K, x1 = 0.507	708.799	1065.6
295.65 K, x1 = 0.603	713.354	1061.7
295.65 K, x1 = 0.7	718.545	1057.5
295.65 K, x1 = 0.79	723.8	1054.2
295.65 K, x1 = 0.898	730.656	1050.5
295.65 K, x1 = 0.951	734.419	1049
295.65 K, x1 = 1	737.036	1047.8
298.15 K, x1 = 0.049	689.271	1079.4
298.15 K, x1 = 0.091	690.571	1076.9
298.15 K, x1 = 0.197	694.113	1071.2
298.15 K, x1 = 0.296	697.7	1065.5
298.15 K, x1 = 0.394	701.586	1060.2
298.15 K, x1 = 0.507	706.495	1054.7
298.15 K, x1 = 0.603	710.995	1050.7
298.15 K, x1 = 0.7	716.128	1046.4
298.15 K, x1 = 0.79	721.323	1042.9
298.15 K, x1 = 0.898	728.107	1039.2
298.15 K, x1 = 0.951	731.831	1037.6
298.15 K, x1 = 1	734.406	1036.6
300.65 K, x1 = 0.049	687.187	1068.9
300.65 K, x1 = 0.091	688.468	1066.3
300.65 K, x1 = 0.197	691.962	1060.5
300.65 K, x1 = 0.296	695.502	1054.7
300.65 K, x1 = 0.394	699.338	1049.4
300.65 K, x1 = 0.507	704.182	1043.8
300.65 K, x1 = 0.603	708.63	1039.7
300.65 K, x1 = 0.7	713.701	1035.2
300.65 K, x1 = 0.79	718.837	1031.7
300.65 K, x1 = 0.898	725.547	1027.9
300.65 K, x1 = 0.951	729.232	1026.2
300.65 K, x1 = 1	731.766	1025.4
303.15 K, x1 = 0.049	685.097	1058.4
303.15 K, x1 = 0.091	686.359	1055.8
303.15 K, x1 = 0.197	689.806	1050
303.15 K, x1 = 0.296	693.296	1044
303.15 K, x1 = 0.394	697.081	1038.7
303.15 K, x1 = 0.507	701.866	1032.8
303.15 K, x1 = 0.603	706.257	1028.7
303.15 K, x1 = 0.7	711.266	1024.1
303.15 K, x1 = 0.79	716.339	1020.4
303.15 K, x1 = 0.898	722.977	1016.5
303.15 K, x1 = 0.951	726.622	1014.8
303.15 K, x1 = 1	729.112	1014
305.65 K, x1 = 0.049	–	1048.1
305.65 K, x1 = 0.091	–	1045.4
305.65 K, x1 = 0.197	–	1039.5
305.65 K, x1 = 0.296	–	1033.4
305.65 K, x1 = 0.394	–	1028
305.65 K, x1 = 0.507	–	1021.9
305.65 K, x1 = 0.603	–	1017.7
305.65 K, x1 = 0.7	–	1013
305.65 K, x1 = 0.79	–	1009.2
305.65 K, x1 = 0.898	–	1005.2
305.65 K, x1 = 0.951	–	1003.4
305.65 K, x1 = 1	–	1002.7
